Results on two compounds are retold here after patent US20050095240A1, “NaCT as a target for lifespan expansion and weight reduction” (Medical College of Georgia Research, priority 2002, published 2005).

Assay [1] deals with T1, hNaDC3 (Homo sapiens, UniProt Q8WWT9).
T1 sequence (Q8WWT9 1-602): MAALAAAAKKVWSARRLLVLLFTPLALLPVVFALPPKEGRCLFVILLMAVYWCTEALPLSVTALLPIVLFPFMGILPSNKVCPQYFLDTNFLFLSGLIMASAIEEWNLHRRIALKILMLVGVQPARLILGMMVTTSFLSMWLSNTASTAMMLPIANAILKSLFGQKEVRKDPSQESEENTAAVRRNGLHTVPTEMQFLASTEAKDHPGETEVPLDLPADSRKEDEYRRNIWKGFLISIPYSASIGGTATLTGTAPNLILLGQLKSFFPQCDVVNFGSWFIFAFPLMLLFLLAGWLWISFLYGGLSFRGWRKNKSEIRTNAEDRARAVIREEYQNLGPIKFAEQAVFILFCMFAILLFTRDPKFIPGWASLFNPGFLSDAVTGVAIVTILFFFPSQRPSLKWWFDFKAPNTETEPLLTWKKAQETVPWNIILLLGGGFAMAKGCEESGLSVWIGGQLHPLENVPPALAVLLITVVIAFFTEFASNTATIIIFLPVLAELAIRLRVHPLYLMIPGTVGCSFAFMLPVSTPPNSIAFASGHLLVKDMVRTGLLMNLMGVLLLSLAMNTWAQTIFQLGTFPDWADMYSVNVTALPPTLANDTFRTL

For assay [2], the target named is T2, ceNaCT (Caenorhabditis elegans, UniProt P32739, I91S/L182M).
T2 sequence (P32739 1-551 I91S/L182M): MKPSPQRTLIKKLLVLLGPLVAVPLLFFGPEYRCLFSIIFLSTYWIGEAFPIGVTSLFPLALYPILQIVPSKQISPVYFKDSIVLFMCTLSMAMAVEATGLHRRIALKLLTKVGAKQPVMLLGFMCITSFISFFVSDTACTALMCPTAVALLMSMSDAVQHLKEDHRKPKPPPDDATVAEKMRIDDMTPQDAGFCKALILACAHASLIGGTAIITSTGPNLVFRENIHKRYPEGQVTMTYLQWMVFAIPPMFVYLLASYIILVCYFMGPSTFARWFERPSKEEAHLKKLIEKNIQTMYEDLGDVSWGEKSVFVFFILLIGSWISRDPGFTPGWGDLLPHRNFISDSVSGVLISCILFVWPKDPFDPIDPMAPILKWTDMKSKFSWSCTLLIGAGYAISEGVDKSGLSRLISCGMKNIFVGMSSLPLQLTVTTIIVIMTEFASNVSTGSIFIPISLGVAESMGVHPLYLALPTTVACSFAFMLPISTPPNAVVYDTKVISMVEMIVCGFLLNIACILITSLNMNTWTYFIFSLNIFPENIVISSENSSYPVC
Put plainly: ceNaCT in X. laevis oocytes: uptake and two-electrode voltage clamp. In kind it is cell-based. An excerpt:
Electrophysiological studies of ceNaCT transport activity. Initially, ceNaCT cRNA prepared from the pSPORT-ceNaCT cDNA construct was used for functional expression of the transporter in X. laevis oocytes. These initial attempts were unsuccessful. Therefore, a X. laevis oocyte expression vector was used. The coding sequence of ceNaCT cDNA was amplified by PCR using the following primers: 5′-[…]-3′ (SEQ ID NO:23) (forward primer) and 5′-[…]-3′ (SEQ ID NO:24) (reverse primer). The forward primer contained the start codon and also an Xma I site introduced at the 5′-end for the purpose of subcloning. The reverse primer contained the termination codon and also a BamH I site at the 5′end for the purpose of subcloning. The PCR-derived ceNaCT coding fragment was then inserted into the Xma I/BamH I site in the oocyte expression vector pGHl9.
(In general: Two-electrode voltage clamp holds a large cell at a set potential and records current.)

In assay [3] the target is T1, hNaDC3. Put plainly: cell-based.
The target in assay [4] is Phe→Leu mutant of human NaCT (Homo sapiens, UniProt Q86YT5, F500L). The assay is described as follows: Citrate uptake via Phe→Leu mutant of human NaCT in HRPE cells. In kind it is cell-based.
In assay [5] the target is zebrafish NaCT (Danio rerio, UniProt A0A2R8QQN0, K78Q). The assay is described as follows: Citrate uptake via zebrafish NaCT expressed in HRPE cells. In kind it is cell-based.
In assay [6] the test system is NaDC3. Conditions: cited from earlier work.
Assay [7] addresses drIndy (Drosophila melanogaster, UniProt Q9VVT2). The settings on record: succinate 0.1 μM.
In assay [8] the test system is NaDC1. Conditions: cited from earlier work.
The target in assay [9] is T3, rat NaDC3 (Rattus norvegicus, UniProt Q9Z0Z5).
T3 sequence (Q9Z0Z5 1-600): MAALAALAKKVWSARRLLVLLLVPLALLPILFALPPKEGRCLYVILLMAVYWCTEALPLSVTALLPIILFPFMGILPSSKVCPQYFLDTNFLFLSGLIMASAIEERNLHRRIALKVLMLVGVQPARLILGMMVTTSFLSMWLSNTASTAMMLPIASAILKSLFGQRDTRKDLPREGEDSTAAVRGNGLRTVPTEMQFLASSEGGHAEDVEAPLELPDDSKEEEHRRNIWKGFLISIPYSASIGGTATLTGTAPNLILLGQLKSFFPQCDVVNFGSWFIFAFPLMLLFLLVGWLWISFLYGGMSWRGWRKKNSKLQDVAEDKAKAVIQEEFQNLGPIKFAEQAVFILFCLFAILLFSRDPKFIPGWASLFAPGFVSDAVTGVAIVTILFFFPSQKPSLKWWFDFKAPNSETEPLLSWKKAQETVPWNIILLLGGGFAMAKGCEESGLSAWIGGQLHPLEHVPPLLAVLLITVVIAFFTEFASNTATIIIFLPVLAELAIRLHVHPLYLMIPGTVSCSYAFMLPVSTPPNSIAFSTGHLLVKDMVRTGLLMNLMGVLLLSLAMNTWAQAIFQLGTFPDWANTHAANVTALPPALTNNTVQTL
Conditions: medium with 135 μM citrate and 40 μM succinate.

Assay [10] addresses T1, hNaDC3. Conditions: read-out: Km for succinate, hNaDC3; as determined by Wang et al.; cited from earlier work.

Structures are written as SMILES.

zebrafish NaCT, sequence (A0A2R8QQN0 2-582 K78Q): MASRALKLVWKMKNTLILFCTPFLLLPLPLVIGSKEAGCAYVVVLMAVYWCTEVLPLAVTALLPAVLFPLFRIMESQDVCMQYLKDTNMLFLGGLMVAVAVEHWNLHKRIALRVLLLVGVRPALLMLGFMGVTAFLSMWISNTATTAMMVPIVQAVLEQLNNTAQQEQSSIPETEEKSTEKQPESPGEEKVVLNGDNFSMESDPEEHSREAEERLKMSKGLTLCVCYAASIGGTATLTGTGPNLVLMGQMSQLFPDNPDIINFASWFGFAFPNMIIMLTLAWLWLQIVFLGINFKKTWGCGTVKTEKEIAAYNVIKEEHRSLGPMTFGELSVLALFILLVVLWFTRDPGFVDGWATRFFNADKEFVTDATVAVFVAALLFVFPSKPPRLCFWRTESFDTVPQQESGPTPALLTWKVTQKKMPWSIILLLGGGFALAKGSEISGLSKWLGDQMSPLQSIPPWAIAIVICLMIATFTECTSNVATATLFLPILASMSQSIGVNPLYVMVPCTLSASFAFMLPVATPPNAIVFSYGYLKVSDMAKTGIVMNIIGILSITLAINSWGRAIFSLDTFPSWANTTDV
Phe→Leu mutant of human NaCT, sequence (Q86YT5 whole entry F500L): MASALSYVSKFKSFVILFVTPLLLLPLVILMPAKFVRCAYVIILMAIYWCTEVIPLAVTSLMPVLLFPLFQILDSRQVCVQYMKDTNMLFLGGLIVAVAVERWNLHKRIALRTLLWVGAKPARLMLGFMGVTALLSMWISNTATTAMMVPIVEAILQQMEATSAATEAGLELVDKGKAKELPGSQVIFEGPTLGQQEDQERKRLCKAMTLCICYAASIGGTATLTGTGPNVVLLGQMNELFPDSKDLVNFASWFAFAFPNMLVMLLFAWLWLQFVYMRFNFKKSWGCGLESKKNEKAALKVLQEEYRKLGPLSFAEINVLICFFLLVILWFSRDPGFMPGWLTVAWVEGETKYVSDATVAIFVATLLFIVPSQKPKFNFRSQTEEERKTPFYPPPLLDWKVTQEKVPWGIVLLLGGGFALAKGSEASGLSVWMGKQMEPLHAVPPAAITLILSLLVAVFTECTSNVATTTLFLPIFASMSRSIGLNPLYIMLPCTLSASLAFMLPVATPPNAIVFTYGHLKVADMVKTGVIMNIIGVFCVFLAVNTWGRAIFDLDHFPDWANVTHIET
drIndy, sequence (Q9VVT2 19-590): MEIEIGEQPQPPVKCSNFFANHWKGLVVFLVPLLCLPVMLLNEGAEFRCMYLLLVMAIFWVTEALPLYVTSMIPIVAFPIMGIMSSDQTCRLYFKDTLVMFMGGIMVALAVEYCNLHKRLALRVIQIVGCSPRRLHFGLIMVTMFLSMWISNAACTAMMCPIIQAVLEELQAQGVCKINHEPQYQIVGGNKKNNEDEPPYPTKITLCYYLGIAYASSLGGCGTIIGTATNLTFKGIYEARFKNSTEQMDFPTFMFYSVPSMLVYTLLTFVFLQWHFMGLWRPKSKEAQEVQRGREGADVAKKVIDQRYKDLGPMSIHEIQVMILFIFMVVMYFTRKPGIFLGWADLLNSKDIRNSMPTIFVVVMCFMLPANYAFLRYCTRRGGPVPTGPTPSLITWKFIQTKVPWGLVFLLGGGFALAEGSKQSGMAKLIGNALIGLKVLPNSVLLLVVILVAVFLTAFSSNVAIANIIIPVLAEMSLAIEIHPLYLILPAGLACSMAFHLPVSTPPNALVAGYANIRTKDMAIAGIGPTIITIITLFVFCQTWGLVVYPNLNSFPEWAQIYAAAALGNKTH

`O=C(O)CC(O)(CC(=O)O)C(=O)O` [Citrate]: in assay [1], the “Lower affinity of hNaDC3 than drIndy for citrate” value is on record as 20 fold. In assay [2] (citrate 40 μM, pH 6.5), the “Uptake in cRNA-injected vs water-injected oocytes” value is recorded as “about 45 fold” and the “Uptake of [^14C]citrate in ceNaCT cRNA-injected oocytes” value is 12.9±0.8 pmol/oocyte/15 min. Further, the “pH-dependent stimulation, pH 7.5 to 6.5” value in [2] (citrate 250 μM) is listed as “about 1.25 fold”. Moreover, the “Maximal current (Imax)” value in [2] (testing membrane potential −50 mV) is listed as 12.3±0.6 nA. In addition, the “K0.5, concentration of citrate for half-maximal current” value in [2] (testing membrane potential −70 mV, pH 6.5) turned out to be 34 ± 8 µM. Moreover, in [2] (testing membrane potential −150 mV), the “Maximal current (Imax)” value stood at 61.1±2.6 nA. The compound further had a Ki in [3] of 2100 ± 300 µM. Moreover, in assay [4], the “Increase in substrate affinity of mutant vs wild type” value was 7 fold and the “Kt for citrate, Phe→Leu mutant” value came to 78 ± 8 µM. For the same compound, half-maximal inhibition in assay [5] (IC50) was put at 30 ± 4 µM. In addition, the Km in assay [5] (read-out: Michaelis constant for citrate uptake, hrpe cells, 30 min) was determined as 40 ± 4 µM.

On to `O=C(O)CCC(=O)O` [Succinate, succinate], for which the “Uptake in hNaDC3 cDNA-transfected cells vs vector” value in assay [1] (succinate 40 nM, presence of Na+) came to 200 fold. For the same compound, the “Michaelis-Menten constant for succinate, NaDC3” value in assay [6] is 2 to 50 µM. Further, in assay [7], the “Uptake of radiolabelled succinate in drIndy cRNA-injected vs water-injected oocytes” value is recorded as 12 fold. The “Michaelis-Menten constant for succinate, NaDC1” value in [8] is 0.1 to 4.0 mM. Moreover, in [9], the “Succinate uptake at physiological concentrations” value is 0.48±0.01 nmol/10^6 cells/minute. Besides, the Km in assay [10] was 20 ± 1 µM. Further, the IC50 in assay [5] was found to be 51 ± 9 µM.

A word on the Ki: it is the dissociation constant of the complex between target and ligand, obtained from inhibition or displacement. Lower therefore signals higher affinity. By IC50 is commonly meant the midpoint of a concentration-inhibition curve. A lower IC50 goes with higher potency.
